Laboratory results published in patent publication US20240352066A1, “ANTIMICROBIAL COMPOUNDS AND THE METHOD OF USE” (priority 2021, published 2024).
Converted amounts (≈) assume the structure as drawn. Where two headings read alike, the source gives them in different places. Where a SMILES comes first, the peptide text is derived from it. [ ]: non-standard residue; d: D form. N(tridecyl)Gly = CCCCCCCCCCCCCNCC(=O)O; Gly(N-2-aminoethyl) = NCCNCC(=O)O; Gly(N-cHex) = O=C(O)CNC1CCCCC1; Nleu = CC(C)CNCC(=O)O; Nlys = NCCCCNCC(=O)O

Assays:
[1] = Mammalian cytotoxicity, MTT, HepG2; type: cell-based, human; settings: human, HepG2 hepatocellular carcinoma cells
In short: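 HepG2 cells (1×10^5 cells/mL, phenol-red-free DMEM, 10% FBS) were exposed to 2-fold dilutions of compound at 1.56–200 μg/mL final, in triplicate, for 72 h at 37 °C, 5% CO2. MTT was added for 3 h and, after DMSO solubilization, absorbance was read at 570 nm. TD50 is the concentration giving a 50% growth reduction versus the water vehicle, reported as the mean of biological replicates ± SD.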

[2] = tested on: human red blood cells (hRBC); experiment: Hemolytic activity against human red blood cells; type: cell-based; settings: for hRBC HC10: Example 2, same donor sample of hRBCs
Experimental: Hemolytic activity was determined using single donor human red blood cells (hRBC). hRBCs were washed with PBS and centrifuged (1000 RPM; 10 minutes) three times, resuspended in PBS and aliquoted (100 μL) in 96 well plates. 2-fold serial dilutions of 10× peptoid final concentrations in PBS were prepared and added to wells in triplicate. PBS was used as a vehicle control and 1% Triton X-100 as a positive control. Plates were incubated for 1 hour (37° C.; 5% CO2) then centrifuged (1000 RPM; 10 minutes) and supernatant was diluted 1:20 into PBS in a new 96-well plate. Plates were read on a SpectraMax M5 plate reader (Abs. 405 nm). Percent hemolysis was determined by the following equation: […]
GraFit was used to determine concentrations at 50% hemolytic activity (HC50) and the Hill coefficient (H). Hemolytic activity at 10% (HC10) was then determined by the following equation: […]
The hemolytic activity of select peptoids was determined as done previously (Green et al. ACS medicinal chemistry letters 12 9, 1470-1477 (2021); Middleton et al. Bioorganic & medicinal chemistry letters 28 22, 3514-3519 (2018)). Selected peptoids were prepared in 2-fold serial dilutions in PBS at the desired concentrations. Human red blood cells (hRBCs, 9 mL) were centrifuged at 1000 rpm for 10 minutes, and the supernatant was removed and discarded. A 10 mL aliquot of PBS was used to resuspend the hRBCs which were centrifuged again at 1000 rpm for 10 minutes. This PBS wash was completed two more times for a total of three washes. A 9 mL aliquot of PBS was added to the hRBCs, and 100 μL of cell solution was added to individual wells of a 96-well plate. Peptoid solutions (11.1 μL) were added to the appropriate wells in triplicate. A vehicle control of PBS and positive control of 1% Triton X-100 were added to wells in triplicate.
The plate was incubated at 37° C. for 1 hour and centrifuged at 1000 rpm for 10 minutes. For each well, 5 μL of supernatant was transferred to 95 μL of PBS in a new 96-well plate. The absorbance at 405 nm was measured using a SpectraMax M5 Plate Reader, and the percent hemolysis was calculated as follows: […]

SMILES	CC50 at 72 h [1]	hRBC HC10 [2]	CC50 at 72 h ([1]; Example 1, 72 hours, MTT, read-out: TD50 HepG2)	HC10 hRBC ([2]; Example 1, 10% lysis, 1 hour)
CCCCCCCCCCCCCNCC(=O)N(CC(=O)N(CCCCN)CC(=O)N(CCN)CC(=O)N(CC(N)=O)CC(C)C)CC(C)C [Compound 9] (H-[N(tridecyl)Gly][Nleu][Nlys][Gly(N-2-aminoethyl)][Nleu]-NH2)	167 ± 75 µg/mL (≈ 235 µM)	130 ± 45 µg/mL	–	–
CCCCCCCCCCCCCNCC(=O)N(CC(=O)N(CCCCN)CC(=O)N(CCN)CC(=O)N(CC(N)=O)C1CCCCC1)C1CCCCC1 [RMG8-8, Ntri-Ncha-Nlys-Nae-Ncha] (H-[N(tridecyl)Gly][Gly(N-cHex)][Nlys][Gly(N-2-aminoethyl)][Gly(N-cHex)]-NH2)	–	75 ± 31 µg/mL	189 ± 43 µg/mL (≈ 248 µM)	77 µg/mL
